Assay results from patent publication US20070065428A1, “Early B-cell detection for selecting vaccines” (Pepscan Systems B.V., priority 2004, published 2007).
Several values for one entry are separate records, joined by “and”; a condition that tells them apart may be missing. Equal values may be shown once. Non-standard residues stand in square brackets, D forms with d. No end group written: not given here. *: point of attachment. Biotin = O=C1N[C@H]2[C@H](CS[C@H]2CCCCC(=O)*)N1; pGlu = O=C1CC[C@@H](C(=O)O)N1

Experiments:
[1] = test system: GnRH-specific B cells; test: Staining of specific B cells with tetramers made from C-term, N-term or middle biotinylated GnRH; assay type: cell-based, mice; conditions: middle- or C-terminally biotinylated GnRH (FIG. 3B)
Protocol: FIG. 3B: Specific B cells are recognized only by C-term tetramer. Peptide-tetrameric molecules made with different biotinylated GnRH: C-term, N-term, and middle biotinylated peptides.
Tetrameric molecules were produced by mixing equal volumes of C-biotinylated, middle biotinylated or N-biotinylated GnRH at 200 μM (Pepscan Systems) with R-phycoerythrin (PE)-labeled neutravidin at 3.3 μM (PE-NA, Molecular Probes, Eugene, Oreg.), or allophycocyanin (APC)-labeled streptavidin at 6.1 μM (APC-SA, Molecular Probes). Each mixture was incubated at 4° C. for at least 12 hours. Then, tetramers were separated from non-complexed peptide by gel filtration using Bio-Gel P-30 spin columns (Bio-Rad, Hercules, Calif.).
As a further specificity test, we produced tetramers using peptides that were N-, middle-, or C-terminally labeled.

[2] = test system: hCG-specific B cells; test: Double-tetramer (PE/APC hCG-tetramer) flow cytometry of rat lymphocytes after immunization with CTP-hCG; assay type: in vivo; conditions: rat spleen lymphocytes, days 10 to 12 after one i.p. immunization; hCG-tetramer double-staining; one value per rat (nos. 1-3)
Protocol: Six eight-week-old rats were used and were treated according to the ethical guidelines of our institutions. Rats (nos. 1, 2, and 3) were immunized intraperitoneally on day 0 with 100 μg C-Terminal Peptide (CTP), which comprises amino acid position 109-145 of hCG, coupled with 300 μg KLH, in Complete Freunds Adjuvant (CFA). The accession number of hCG is p01233, the Swiss prot. entry name is CGHB_HUMAN.
Control rats (nos. 4, 5, and 6) were immunized with KLH in CFA. On days 10 to 12, the animals were sacrificed and spleens were harvested. All animal experiments were performed with permission from the local ethical committee (DEC).
Cell suspensions of splenocytes were obtained by mechanical disruption of the spleens. Lymphocytes were collected using a Ficoll gradient. The resulting single-cell suspensions were stained with hCG-tetramers at optimal dilution. Staining was conducted at 4° C. in two steps. First, cells were stained with the PE-labeled tetramer of hCG for one hour, using the empirically determined optimal concentration. Cells were then washed three times with FACS buffer. Next, cells were stained with the APC-labeled tetramer of hCG and washed again. […]
Lymphocytes were stained with hCG-tetramers. […] Only […] detected as a responder to the immunization based on specific B-cell responses.

[3] = test system: GnRH-specific B cells; test: Inhibition of GnRH-tetramer staining of specific B cells by pre-incubation with unlabeled GnRH; assay type: cell-based, mice
Protocol: FIG. 3A: Unlabeled GnRH or Gastrin is able to inhibit the peptide-tetrameric molecule staining of the specific B cells. […] Splenocytes were pre-incubated with unlabeled GnRH or Gastrin, followed by incubation with labeled tetramers and anti-CD19 and anti-CD3 antibodies. Three doses of unlabeled antigens were used: 2 mM, 20 μM and 0.2 μM.
Lymphocytes were preincubated with unlabeled peptide followed by incubation with labeled tetramers, CD19 and CD3e antibodies.

[4] = test system: GnRH; conditions: cited from earlier work; for biological effect: peptide conjugated to a carrier protein (Meloen et al., 1994; Oonk et al., 1998); for immunogenicity: peptide conjugated to a carrier protein, resulting in GnRH-neutralizing antibodies (Meloen et al., 1994; Oonk et al., 1998)

C-term biotinylated GnRH tetrameric: C-biotinylated GnRH complexed with PE-labeled neutravidin or APC-labeled streptavidin (QHWSYGLRPG-biotin; ends and bridges not checked; also: tetramer with PE-labeled neutravidin or APC-labeled streptavidin; UniProt P01148 24-33, looked up)
detection of specific B cells by the tetramer [1]: able to detect the specific B cells

CTP-KLH/CFA: C-Terminal Peptide, amino acid position 109-145 of hCG, coupled with KLH, in Complete Freunds Adjuvant (TCDDPRFQDSSSSKAPPPSLPSPSRLPGPSDTPILPQ; also: coupled with KLH, in Complete Freunds Adjuvant; UniProt P0DN86 129-165, looked up, fragment)
Pos. B cells per 1 × 10^6 cells in Facs [2]: 61 per 1 × 10^6 cells and 47 per 1 × 10^6 cells and 136 per 1 × 10^6 cells

N-term: tetramer of N-biotinylated GnRH with PE-labeled neutravidin or APC-labeled streptavidin (Biotin-QHWSYGLRPG; ends and bridges not checked; also: tetramer with PE-labeled neutravidin or APC-labeled streptavidin; UniProt P01148 24-33, looked up)
detection of specific B cells by the tetramer [1]: Only the C-term peptide was able to detect the specific cells

Unlabeled GnRH: Gonadotrophin-releasing hormone, a decapeptide, used unlabeled as competitor of tetramer staining (QHWSYGLRPG; ends and bridges not checked; UniProt P01148 24-33, looked up)
inhibition of tetramer staining, dose dependence ([3]; lymphocytes preincubated with unlabeled peptide, then labeled tetramers (FIG. 3A)): inhibited by inclusion of unlabeled peptide in a dose-dependent manner
inhibition of peptide-tetramer staining of specific B cells ([3]; splenocytes pre-incubated with unlabeled antigen, higher dose of 2 mM, 20 μM and 0.2 μM): nearly abolished

dimerized form of pEHWSYkLRPGQHWSYkLRPGC [TDK]
biological effect [4]: full biological effect in all treated animals
immunogenicity [4]: highly immunogenic

middle biotinylated peptides: tetramer of middle biotinylated GnRH with PE-labeled neutravidin or APC-labeled streptavidin (QHWSYGLRPG; ends and bridges not checked; also: middle biotinylated, tetramer with PE-labeled neutravidin or APC-labeled streptavidin; UniProt P01148 24-33, looked up)
detection of specific B cells by the tetramer [1]: Only the C-term peptide was able to detect the specific cells

pEHWSYGLRPGQHWSYGLRPGC ([pGlu]HWSYGLRPGQHWSYGLRPGC) [GnRH tandem]
biological effect [4]: full biological effect in all treated animals
immunogenicity [4]: highly immunogenic
